Molecules are shown by their SMILES. Where two headings read alike, the source gives them in different places.

Results on 13 molecules are retold here after US20110020843A1, “LABEL-FREE METHODS RELATED TO PHOSPHODIESTERASES” (priority 2009, published 2011).

Assay [1] deals with endogenous Gs-coupled β2-adrenergic receptor (Homo sapiens, UniProt P07550). The note with it: A431 cells; Epic DMR vs whole cell cAMP kit (FIG. 3). The protocol:
For biosensor cellular assays, compound solutions were made by diluting the stored concentrated solutions with the HBSS (1× Hanks balanced salt solution, plus 20 mM Hepes, pH 7.1), and transferred into a 384 well polypropylene compound storage plate to prepare a compound source plate. Two compound source plates were made separately when a two-step assay was performed. In parallel, the cells were washed twice with the HBSS and maintained in 30 μl of the HBSS to prepare a cell assay plate. Both the cell assay plate and the compound source plate(s) were then incubated in the hotel of the reader system. After incubation the baseline wavelengths of all biosensors in the cell assay microplate were recorded and normalized to zero. Afterwards, a 2 to 10 min continuous recording was carried out to establish a baseline, and to ensure that the cells reached a steady state. Cellular responses were then triggered by transferring 10 μl of the compound solutions into the cell assay plate using the on-board liquid handler.

Assay [2] relates to quiescent A431 cells (endogenous PDE4 isoforms). The assay can be described thus: Label-free Epic RWG biosensor DMR assay of PDE inhibitors in synchronized quiescent A431 cells. The note with it: for DMR signal induced by PDE inhibitor: each at 12.5 micromolar, 22k cells per well, synchronized in HBSS under low CO2 for 2 hrs, vs vehicle; for DMR signal upon stimulation: synchronized in HBSS buffer for a shorter time (<90 min), data not shown. The class given is cell-based, human. Here is the method: Cells were typically grown using ˜1 to 2×10^4 cells per well at passage 3 to 15 suspended in 50 μl of the corresponding culture medium in the biosensor microplate, and were cultured at 37° C. under air/5% CO2 for ˜1 day. Except for A431 which was subject to ˜20 hr starvation through continuously culture in the serum-free DMEM, the other cell types were directly assayed without starvation.
Epic® wavelength interrogation system (Corning Inc., Corning, N.Y.) was used for whole cell sensing. This system consists of a temperature-control unit, an optical detection unit, and an on-board liquid handling unit with robotics. The detection unit is centered on integrated fiber optics, and enables kinetic measures of cellular responses with a time interval of ˜15 sec. The compound solutions were introduced by using the on-board liquid handling unit (i.e., pippetting).
The RWG biosensor is capable of detecting minute changes in local index of refraction near the sensor surface. Since the local index of refraction within a cell is a function of density and its distribution of biomass (e.g., proteins, molecular complexes), the biosensor exploits its evanescent wave to non-invasively detect ligand-induced dynamic mass redistribution in native cells. The evanescent wave extends into the cells and exponentially decays over distance, leading to a characteristic sensing volume of ˜150 nm, implying that any optical response mediated through the receptor activation only represents an average over the portion of the cell that the evanescent wave is sampling. The aggregation of many cellular events downstream the receptor activation determines the kinetics and amplitudes of a ligand-induced DMR.
All studies were carried out at a controlled temperature (28° C.). At least two independent sets of experiments, each with at least three replicates, were performed.
We further examined the DMR signal, if any, of the quiescent A431 cells upon treatment with PDE inhibitors. […] The quiescent A431 cells obtained under the same culture condition were used. Here the initial seeding numbers of cells were relatively low (˜20K cells per well in a 384 well Epic biosensor microplate tissue culture treated). […] After washing with the serum free medium, the cells were continuously cultured in the serum free medium for another 24 hrs to reach a quiescent state. Here the quiescent state was largely achieved through serum withdrawl. […] The cell membrane bound carbonic anahydrase is a known sensor for CO2 level.
In FIG. 4 the quiescent cells were achieved primarily through serum withdrawl. We were interested in the quiescent cells achieved through both contact inhibition and serum withdrawl. To do so, much higher initial seeding numbers of cells (>=25k cells per well for the 384 well Epic biosensor microplate) were used. […] Here both quiescent cells were subject to the same synchronization condition (2 hr incubation in the HBSS assay solution in a low CO2 environment).
Here the quiescent A431 cells were used using 22k cells per well in 384 well Epic biosensor microplates, followed by one day (˜24 hrs) culture in serum medium and 1 day (˜24 hrs) serum free medium, and sequential synchronization in the HBSS buffer solution under a relatively low CO2 environment for 2 hrs. […] For comparison, the DMR signal of cells stimulated with the buffer only (“Vehicle”) were included.

Assay [3] has as its system intracellular cAMP level of A431 cells. Put plainly: Chemiluminescence quantification of cyclic AMP in whole cell lysate. In kind it is cell-based, human.
Method: A431 cells were seeded in 96 well TCT microplate at 80000 cells/well, cultured for 20 hrs and starved for an extra 20 hrs. Cells were washed two time with HBSS and incubated with 100 μl of HBSS, Leibovitz's L-15 medium (Gibco) or 1 μM of Acetozamine (Sigma) in HBSS for 2 hrs in the Epic instrument. […] The medium or buffer was removed and cells were lysed in 100 μm al of lysis buffer (from cAMP HTS immunoassay kit, Millipore) containing 1 mM IBMX. 50 μl of cell extracts as well as cAMP standard were then analyzed using the same procedure described by the vendor.
A431 Cells were cultured in a serum rich medium on Corning tissue culture treated 96 well microplate until it reached a high confluency (˜95%). After washing, the cells were continuously cultured in a serum free medium for overnight. At this point, the cells were at ˜100% confluency. After washing with corresponding solution, the cells are incubated at the same low CO2 environment (˜2% CO2) for 2 hr. The cells were then lysed with a cell lysis buffer containing 100 micromolar IBMX to block the PDE activity, followed by cAMP measurements, using the protocol as recommended by the supplier.

endogenous Gs-coupled β2-adrenergic receptor, sequence (P07550 whole entry): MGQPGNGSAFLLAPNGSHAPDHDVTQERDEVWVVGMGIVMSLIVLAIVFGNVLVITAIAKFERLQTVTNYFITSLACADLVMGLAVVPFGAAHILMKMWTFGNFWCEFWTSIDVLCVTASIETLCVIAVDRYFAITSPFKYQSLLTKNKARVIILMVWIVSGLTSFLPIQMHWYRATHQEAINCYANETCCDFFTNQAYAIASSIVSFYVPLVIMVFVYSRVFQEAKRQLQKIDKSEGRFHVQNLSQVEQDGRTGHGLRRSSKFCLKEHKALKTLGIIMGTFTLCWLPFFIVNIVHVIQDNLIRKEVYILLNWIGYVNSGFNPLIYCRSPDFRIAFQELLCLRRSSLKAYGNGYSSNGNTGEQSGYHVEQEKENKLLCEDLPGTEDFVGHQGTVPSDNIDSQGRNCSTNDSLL

Take `CNC[C@H](O)c1ccc(O)c(O)c1` [epinephrine]: the “potency to activate DMR signal relative to potency to cause whole cell cAMP accumulation” value in assay [1] is given as “much higher potency”.

Consider `CCc1ccc2c(-c3cccc(Cl)c3)nc(=O)n(CC)c2n1` [YM-976], for which, in assay [2], the “DMR signal induced by PDE inhibitor” value is listed as “Gs-like DMR signal”.

As for `COCc1nc2c([nH]1)c(=O)n(C)c(=O)n2CC(C)C` [MMPX], the “DMR signal induced by PDE inhibitor” value in assay [2] is on record as “did not result in any detectable DMR signals”.

In the case of `CCCOc1ccccc1-c1nc2nn[nH]c2c(=O)[nH]1` [zaprinast], the “DMR signal induced by PDE inhibitor” value in assay [2] is “did not result in any detectable DMR signals”.

Regarding `CCCCOc1cc(CC2CNC(=O)N2)ccc1OC` (centres unmarked) [Ro-20-1724], the “DMR signal induced by PDE inhibitor” value in assay [2] is “Gs-like DMR signal”.

For the molecule `CCCn1c(=O)c(C)cn2nc(N)nc12` [ICI63197], the “DMR signal induced by PDE inhibitor” value in assay [2] is listed as “Gs-like DMR signal”.

Regarding `O=C1CN2Cc3c(ccc(Cl)c3Cl)N=C2N1` [anagrelide], the “DMR signal induced by PDE inhibitor” value in assay [2] is “did not result in any detectable DMR signals”.

Consider `Clc1cccc(Nc2nnc(-c3ccccc3)c3ccccc23)c1` [MY-5445], for which the “DMR signal induced by PDE inhibitor” value in assay [2] was “did not result in any detectable DMR signals”.

By EC50 is commonly meant the concentration giving half of the maximal effect. Take `COc1ccc([C@@H]2CNC(=O)C2)cc1OC1CCCC1` [R-rolipram]: in assay [2] (Homo sapiens, A-431, quiescent cells achieved through both contact inhibition and serum withdrawl (>=25k cells per well), 2 hr incubation in HBSS, low CO2, read-out: EC50 of DMR response), the EC50 was 0.25 µM. Also, in assay [2], the “DMR signal induced by PDE inhibitor” value is listed as “Gs-like DMR signal” and the “DMR signal upon stimulation” value is recorded as “inconsistent DMR signal”.

On to `CC(C)Cn1c(=O)n(C)c(=O)c2[nH]cnc21` [IBMX], for which the “impact on intracellular cAMP levels (whole cell lysate)” value in assay [3] (10 nanomolar to 100 micromolar, all synchronization conditions, data not shown) is given as “little impact”. The 50% effective concentration (EC50) in assay [2] (quiescent A431 (~20K cells per well, serum withdrawl), the three synchronized conditions wherein IBMX led to a detectable DMR signal, read-out: potency of IBMX-induced DMR signal (EC50)) is ~10 µM. For the same molecule, the “IBMX-induced DMR signal” value in assay [2] (quiescent A431 synchronized in CO2 independent medium L-15, highest doses examined (FIG. 4c)) was “little DMR signals”; in assay [2] (synchronized in 1×HBSS 20 mM Hepes pH 7.1 with or without acetamolamide, low CO2, 2 hr (FIG. 4A, 4B)) it was “dose-dependent and robust DMR signal”; in assay [2] (synchronized in CO2 independent L-15 medium containing acetamolamide at 1 micromolar (FIG. 4D)), “robust DMR signal”. Also, the “DMR signal upon stimulation” value in assay [2] is listed as “inconsistent DMR signal”.

Take `Cc1ccc([N+](=O)[O-])cc1S(=O)(=O)N(C)C` [BRL-50481]: the “DMR signal induced by PDE inhibitor” value in assay [2] is “did not result in any detectable DMR signals”.

As to `CC(=O)Nc1nnc(S(N)(=O)=O)s1` [acetazolamide], the “basal cAMP level” value in assay [3] (quiescent A431 synchronized 2 hr, low CO2, in L-15 medium containing 1 micromolar acetazolamide) came out at 0.74±0.1 pmole/160K cells.

For the molecule `Cc1[nH]c(=O)c(C#N)cc1-c1ccncc1` [milrinone], the “DMR signal induced by PDE inhibitor” value in assay [2] is “did not result in any detectable DMR signals”.
